The subject of one series is cancer cells. The note with it: cited from earlier work.
The nature of series [1]: Solubility in water, 24 hours stirring at ambient temperature, HPLC analysis. Type of series: physicochemical. The note with it: for solubility at 24 h: thermodynamic from solid. The method, then:
A solution containing 140 mg of the compound obtained in Example 1 in 7 ml of water is stirred for 24 hours at ambient temperature. After filtration using an Acrodisc GJHP 0.45[…] μm, the solution is analysed by HPLC.

The nature of series [2]: Constant surface area (intrinsic) dissolution kinetics at pH 2. The series is classed as physicochemical. The note with it: for dissolution kinetics: pH 2 (0.01N HCl), ambient temperature, pellets of 0.075 cm^2, 100 rpm. The method, then: The constant surface area dissolution kinetics (or intrinsic dissolution kinetics) of the product of Example 1 were determined at ambient temperature at pH 2 (10 mL of 0.01N HCl) using a μDiss dissolution apparatus and pellets of 0.075 cm^2, prepared by compression at 90 bars, for 2 minutes at a stirring speed of 100 rpm.
The product of Example 1 dissolves with kinetics of 23 μg·s^−1·cm^−2+/−11%. By way of comparison, the dissolution kinetics of the corresponding hydrochloride are 1.6 μg·s^−1·cm^−2. The methanesulphonate therefore dissolves about 14 times faster than the corresponding hydrochloride.

Series [3] can be described thus: Purity and stability under denaturing conditions (HPLC, X-ray diffractogram, DSC). The series is classed as physicochemical. The method, then:
The compound of formula (II) according to the invention has excellent stability over time even under denaturing conditions: at 25° C./60% relative humidity, at 25° C./90% relative humidity, at 30° C./65% relative humidity, at 40° C./75% relative humidity, or at 50° C., the compound of formula (II) is unchanged after 6 months.
EXAMPLE 2: PURITY AND STABILITY OF 3[(3-{[4-(4-MORPHOLINYLMETHYL)-1H-PYRROL-2-YL]METHYLENE}-2-OXO-2,3-DIHYDRO-1H-INDOL-5-YL)METHYL]-1,3-THIAZOLIDINE-2,4-DIONE METHANESULPHONATE, Z ISOMER, UNDER DENATURING CONDITIONS

Setting [4] is: After 6 months, 25° C./60% relative humidity.
Setting [5] is: After 6 months, 25° C./90% relative humidity.
Where [6] appears, read: After 6 months, 30° C./65% relative humidity.
The mark [7] stands for this setting: After 6 months, 40° C./75% relative humidity.

Where two headings read alike, the source gives them in different places.

Consider four compounds from patent US10245270B2, “Salt of 3-[(3-{[4-(4-morpholinylmethyl)-1H-pyrrol-2-yl]methylene}-2-oxo-2,3-dihydro-1H-indol-5-yl)methyl]-1,3-thiazolidine-2,4-dione, its preparation, and formulations containing it” (LES LABORATOIRES SERVIER, priority 2013, dated 2019).

As to `O=C1Nc2ccc(CN3C(=O)CSC3=O)cc2C1=Cc1cc(CN2CCOCC2)c[nH]1` [3-[(3-{[4-(4-morpholinylmethyl)-1H-pyrrol-2-yl]methylene}-2-oxo-2,3-dihydro-1H-indol-5-yl)methyl]-1,3-thiazolidine-2,4-dione], in the series with cancer cells, the “ability to inhibit the migration of cancer cells” value was “has the ability to inhibit the migration of cancer cells”.

One may read the solubility as the concentration that dissolves in the medium under given conditions. Regarding `Cl.O=C1Nc2ccc(CN3C(=O)CSC3=O)cc2/C1=C/c1cc(CN2CCOCC2)c[nH]1` (single isomer, unassigned) [hydrochloride of 3-[(3-([4-{(4-morpholinylmethyl)-1H-pyrrol-2-yl]methylene}-2-oxo-2,3-dihydro-1H-indol-5-yl)methyl]-1,3-thiazolidine-2,4-dione, Z isomer, reference compound], the solubility in series [1] (as the salt) came to 4.3 mg/mL. The “solubility in terms of the base equivalent” value in series [1] (base equivalent) amounted to 4 mg/mL. Moreover, the dissolution kinetics in series [2] was 1.6 μg·s^−1·cm^−2.

For `CS(=O)(=O)O.O=C1Nc2ccc(CN3C(=O)CSC3=O)cc2C1=Cc1cc(CN2CCOCC2)c[nH]1` [compound of formula (II), 3-[(3-{[4-(4-morpholinylmethyl)-1H-pyrrol-2-yl]methylene}-2-oxo-2,3-dihydro-1H-indol-5-yl)methyl]-1,3-thiazolidine-2,4-dione methanesulphonate], in series [3] (after 6 months at 25° C./60% RH, 25° C./90% RH, 30° C./65% RH, 40° C./75% RH or 50° C.), the “stability over time under denaturing conditions” value is “unchanged”.

Consider `O=C1Nc2ccc(CN3C(=O)CSC3=O)cc2C1=Cc1cc(CN2CCOCC2)c[nH]1` [Example 1, 3-[(3-{[4-(4-MORPHOLINYLMETHYL)-1H-PYRROL-2-YL]METHYLENE}-2-OXO-2,3-DIHYDRO-1H-INDOL-5-YL)METHYL]-1,3-THIAZOLIDINE-2,4-DIONE METHANESULPHONATE, Z ISOMER], for which the “DSC (thermogram)” value in series [3] (setting [4]) was “unchanged”; in series [3] (setting [5]), “unchanged”; in series [3] (setting [6]), “unchanged”; in series [3] (setting [7]), “unchanged”; in series [3] (After 6 months, 50° C.), “unchanged”. The “HPLC (% Example 1)” value in series [3] (setting [4]) is 99.8%; in series [3] (setting [5]), 99.8%; in series [3] (setting [6]), 99.8%; in series [3] (setting [7]), 99.8%; in series [3] (After 6 months, 50° C.), 99.8%; in series [3] (t = 0), 99.8%. The “XR (diffractogram)” value in series [3] (setting [4]) is recorded as “unchanged”; in series [3] (setting [5]), “unchanged”; in series [3] (setting [6]), “unchanged”; in series [3] (setting [7]) it was “unchanged”; in series [3] (After 6 months, 50° C.) it was “unchanged”. Besides, the solubility at 24 h in series [1] (as the salt, read-out: solubility) was found to be 14.7 mg/mL; in series [1] (base equivalent, read-out: solubility in terms of the base equivalent), 12.1 mg/mL. In addition, the dissolution kinetics in series [2] is 23 μg·s^−1·cm^−2. In addition, the “dissolution rate relative to the corresponding hydrochloride” value in series [2] (pH 2, ambient temperature) is reported as “about 14 times faster”.
